Reference: US20240358611A1, “COMPOSITIONS” (SYMRISE AG, priority 2021, published 2024)

How the values were obtained:
[1] = tested on: LPS-stimulated, pro-inflammatory synthesis of IL-1B in RAW macrophages; assay: LPS-stimulated IL-1B synthesis in RAW 264.7 macrophages (ELISA); format: cell-based, mouse; conditions: LPS 10 ng/ml, 24 h
Method: (§1) RAW 264.7 (mouse macrophage tumor cells) cells were provided from the University of Cordoba in Spain and maintained in RPMI1640 medium containing FCS.
(§2) Cells are seeded in 24-well-plates (approx. 500 000 cells/ml in 1 ml) for ELISA experiments.
(§3) Cells are incubated without or with LPS (10 ng/ml) for 24 h. The pyrozol derivates or additives such as Thymol or Menthol (3 doses, 1, 10, 100 μM) are added 30 min before LPS treatment as single dose or in combination. […] After 24 h, supernatants are removed, centrifuged, and investigated for PGE2 concentrations in EIA (PGE2, from Cayman, isoprostane from Cayman) or ELISA (IL-1B, IL-6, TNF-alpha, Biotechne)). Each dose is investigated 2 times.
(§4) Optimal dose range for additives and substituted azacycles was determined in a preliminary assays dose finding assay (data not shown). Thus, test items are investigated at 10 μM 100 μM or any combination of the two doses for additive effects. Synergism is defined as additive effect surpassing the hypothetical mathematical value of effective doses. The hypothetical value is depicted in all graphs as dashed line.

[2] = tested on: LPS-stimulated, pro-inflammatory synthesis of PGE2 in RAW macrophages; assay: LPS-stimulated PGE2 synthesis in RAW 264.7 macrophages (EIA); format: cell-based, mouse; conditions: 10 μM in combination with 10 μM Thymol, LPS 10 ng/ml, 24 h
Method: as §1, §2, §3, §4

[3] = in combination with Menthol, 10 μM or 100 μM each, all tested combinations
[4] = in combination with Thymol, 10 μM or 100 μM each

Structure (SMILES): CSC(C)C(=O)N1CCCC[C@@H]1c1ncc(-c2ccc(C)cc2)[nH]1 (stereo partly drawn) [CoNo11, 2-methylsulfanyl-1-[(1R)-2-[5-(p-tolyl)-1H-imidazol-2-yl]-1-piperidyl]-propan-1-one]
- effect on LPS-stimulated IL-1 beta synthesis [1, 3]: strong inhibition of IL-1 beta synthesis
- effect on LPS-stimulated IL-1 beta synthesis [1, 4]: strong synergistic soothing effect

Structure (SMILES): CCC(C)C(=O)N1CCCCC1c1ncc(-c2ccc(C)cc2)[nH]1 (stereo not drawn) [CoNo164, 2-methyl-1-[2-[5-(p-tolyl)-1H-imidazol-2-yl]-1-piperidyl]butan-1-one]
- effect on LPS-stimulated IL-1 beta synthesis [1, 3]: strong inhibition of IL-1 beta synthesis
- effect on LPS-stimulated IL-1 beta synthesis [1, 4]: strong synergistic soothing effect
- effect on LPS-stimulated PGE2 synthesis [2]: synergistically mitigated PGE2 synthesis

Structure (SMILES): CC[C@H](C)C(=O)N1CCCCC1c1ncc(-c2ccc(C)cc2)[nH]1 (stereo partly drawn) [CoNo166, (2S)-2-methyl-1-[2-[5-(p-tolyl)-1H-imidazol-2-yl]-1-piperidyl]butan-1-one]
- effect on LPS-stimulated IL-1 beta synthesis [1, 3]: strong inhibition of IL-1 beta synthesis
- effect on LPS-stimulated IL-1 beta synthesis [1, 4]: strong synergistic soothing effect
- effect on LPS-stimulated PGE2 synthesis [2]: synergistically mitigated PGE2 synthesis

Structure (SMILES): CC1CCC(C(C)C)C(O)C1 (stereo not drawn) [Menthol]
- effect on LPS-stimulated IL-1 beta synthesis ([1]; applied as single substance): stimulates IL-1 beta synthesis
